According to US11117900B2 (Vertex Pharmaceuticals Incorporated, priority 2012, dated 2021):

System: HCT116 colorectal cancer cells
Assay: Cisplatin sensitization assay (96 h MTS cell viability);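 further: compound concentration needed to lower the IC50 of Cisplatin alone by a set fold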
Assay type: cell-based
Conditions: Cisplatin sensitization value
How it was run: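 HCT116 cells were dosed simultaneously with compound and cisplatin as a full matrix of 2-fold serial dilutions from 10 μM top final concentration. Incubation was 96 h at 37° C., 5% CO2, followed by 1 h with MTS reagent for the viability read-out. Sensitization values were binned into +++, ++ and + categories.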

Compound | Cisplatin Sensitization Assay
COC1CCN(C2CCN(c3ccncc3NC(=O)c3c(N)nn4cc(Cl)cnc34)CC2)C1 (centres unmarked) [I-N-95, 2-amino-6-chloro-N-(4-(4-(3-methoxypyrrolidin-1-yl)piperidin-1-yl)pyridin-3-yl)pyrazolo[1,5-a]pyrimidine-3-carboxamide] | ++ (Compounds with a Cisplatin sensitization value >0.02 μM but <0.2 μM are marked with “++.”)
CN1CCN(C2CCN(c3ccncc3NC(=O)c3c(N)nn4cc(Cl)cnc34)CC2)CC1 [I-N-97, 2-amino-6-chloro-N-(4-(4-(4-methylpiperazin-1-yl)piperidin-1-yl)pyridin-3-yl)pyrazolo[1,5-a]pyrimidine-3-carboxamide] | +++ (Compounds with a Cisplatin sensitization value of <0.02 μM are marked with “+++.”)
Nc1nn2cc(Cl)cnc2c1C(=O)Nc1cnccc1N1CCC(N2CCC3(COC3)C2)CC1 [I-N-99, N-(4-(4-(2-oxa-6-azaspiro[3.4]octan-6-yl)piperidin-1-yl)pyridin-3-yl)-2-amino-6-chloropyrazolo[1,5-a]pyrimidine-3-carboxamide] | +++ (Compounds with a Cisplatin sensitization value of <0.02 μM are marked with “+++.”)
Nc1nn2cc(Cl)cnc2c1C(=O)Nc1cnccc1N1CCC(N2CC[S+]([O-])CC2)CC1 [I-N-100, 2-amino-6-chloro-N-(4-(4-(1-oxidothiomorpholino)piperidin-1-yl)pyridin-3-yl)pyrazolo[1,5-a]pyrimidine-3-carboxamide] | ++ (Compounds with a Cisplatin sensitization value >0.02 μM but <0.2 μM are marked with “++.”)
Nc1nn2cc(Cl)cnc2c1C(=O)Nc1cnccc1N1CCC(N2CCn3cncc3C2)CC1 [I-N-101, 2-amino-6-chloro-N-(4-(4-(5,6-dihydroimidazo[1,5-a]pyrazin-7(8H)-yl)piperidin-1-yl)pyridin-3-yl)pyrazolo[1,5-a]pyrimidine-3-carboxamide] | ++ (Compounds with a Cisplatin sensitization value >0.02 μM but <0.2 μM are marked with “++.”)
Nc1nn2cc(Cl)cnc2c1C(=O)Nc1cnccc1N1CCC(N2CCn3ccnc3C2)CC1 [I-N-102, 2-amino-6-chloro-N-(4-(4-(5,6-dihydroimidazo[1,2-a]pyrazin-7(8H)-yl)piperidin-1-yl)pyridin-3-yl)pyrazolo[1,5-a]pyrimidine-3-carboxamide] | ++ (Compounds with a Cisplatin sensitization value >0.02 μM but <0.2 μM are marked with “++.”)
Nc1nn2cc(Cl)cnc2c1C(=O)Nc1cnccc1N1CCC(N2CC[C@H](F)C2)CC1 [I-N-103, (S)-2-amino-6-chloro-N-(4-(4-(3-fluoropyrrolidin-1-yl)piperidin-1-yl)pyridin-3-yl)pyrazolo[1,5-a]pyrimidine-3-carboxamide] | +++ (Compounds with a Cisplatin sensitization value of <0.02 μM are marked with “+++.”)
Nc1nn2cc(Cl)cnc2c1C(=O)Nc1cnccc1N1CCC(N2CCOCC2)CC1 [I-N-104, 2-amino-6-chloro-N-(4-(4-morpholinopiperidin-1-yl)pyridin-3-yl)pyrazolo[1,5-a]pyrimidine-3-carboxamide] | +++ (Compounds with a Cisplatin sensitization value of <0.02 μM are marked with “+++.”)
Nc1nn2cc(Cl)cnc2c1C(=O)Nc1cnccc1N1CCC(N2CCCC2)CC1 [I-N-105, 2-amino-6-chloro-N-(4-(4-(pyrrolidin-1-yl)piperidin-1-yl)pyridin-3-yl)pyrazolo[1,5-a]pyrimidine-3-carboxamide] | +++ (Compounds with a Cisplatin sensitization value of <0.02 μM are marked with “+++.”)
CN(C)C1CCN(C2CCN(c3ccncc3NC(=O)c3c(N)nn4cc(Cl)cnc34)CC2)C1 (centres unmarked) [I-N-106, 2-amino-6-chloro-N-(4-(4-(3-(dimethylamino)pyrrolidin-1-yl)piperidin-1-yl)pyridin-3-yl)pyrazolo[1,5-a]pyrimidine-3-carboxamide] | +++ (Compounds with a Cisplatin sensitization value of <0.02 μM are marked with “+++.”)
COC1CN(C2CCN(c3ccncc3NC(=O)c3c(N)nn4cc(Cl)cnc34)CC2)C1 [I-N-107, 2-amino-6-chloro-N-(4-(4-(3-methoxyazetidin-1-yl)piperidin-1-yl)pyridin-3-yl)pyrazolo[1,5-a]pyrimidine-3-carboxamide] | +++ (Compounds with a Cisplatin sensitization value of <0.02 μM are marked with “+++.”)
Nc1nn2cc(Cl)cnc2c1C(=O)Nc1cnccc1N1CCC(N2CC(F)(F)C2)CC1 [I-N-108, 2-amino-6-chloro-N-(4-(4-(3,3-difluoroazetidin-1-yl)piperidin-1-yl)pyridin-3-yl)pyrazolo[1,5-a]pyrimidine-3-carboxamide] | +++ (Compounds with a Cisplatin sensitization value of <0.02 μM are marked with “+++.”)
Nc1nn2cc(Cl)cnc2c1C(=O)Nc1cnccc1N1CCC(N2CCC23COC3)CC1 [I-N-109, N-(4-(4-(6-oxa-1-azaspiro[3.3]heptan-1-yl)piperidin-1-yl)pyridin-3-yl)-2-amino-6-chloropyrazolo[1,5-a]pyrimidine-3-carboxamide] | +++ (Compounds with a Cisplatin sensitization value of <0.02 μM are marked with “+++.”)
CN1CCN(c2c(NC(=O)c3c(N)nn4cc(F)cnc34)cncc2C(F)F)CC1 [I-N-111, 2-amino-N-(5-(difluoromethyl)-4-(4-methylpiperazin-1-yl)pyridin-3-yl)-6-fluoropyrazolo[1,5-a]pyrimidine-3-carboxamide] | ++ (Compounds with a Cisplatin sensitization value >0.02 μM but <0.2 μM are marked with “++.”)
Nc1nn2cc(F)cnc2c1C(=O)Nc1cnccc1N1CCN(C2COC2)C2CC21 (centres unmarked) [I-N-112, 2-amino-6-fluoro-N-(4-(5-(oxetan-3-yl)-2,5-diazabicyclo[4.1.0]heptan-2-yl)pyridin-3-yl)pyrazolo[1,5-a]pyrimidine-3-carboxamide] | + (Compounds with a Cisplatin sensitization value >0.2 μM but <5 μM are marked with “+.”)
CN1CCN(c2c(C#N)cncc2NC(=O)c2c(N)nn3cc(F)cnc23)CC1 [I-N-113, 2-amino-N-(5-cyano-4-(4-methylpiperazin-1-yl)pyridin-3-yl)-6-fluoropyrazolo[1,5-a]pyrimidine-3-carboxamide] | + (Compounds with a Cisplatin sensitization value >0.2 μM but <5 μM are marked with “+.”)
Nc1nn2cc(F)cnc2c1C(=O)Nc1cnccc1N1CCN2CCOC[C@@H]2C1 [I-N-115, (S)-2-amino-6-fluoro-N-(4-(hexahydropyrazino[2,1-c][1,4]oxazin-8(1H)-yl)pyridin-3-yl)pyrazolo[1,5-a]pyrimidine-3-carboxamide] | +++ (Compounds with a Cisplatin sensitization value of <0.02 μM are marked with “+++.”)
Nc1nn2cc(F)cnc2c1C(=O)Nc1cnccc1N1CCN2CCOC[C@H]2C1 [I-N-116, (R)-2-amino-6-fluoro-N-(4-(hexahydropyrazino[2,1-c][1,4]oxazin-8(1H)-yl)pyridin-3-yl)pyrazolo[1,5-a]pyrimidine-3-carboxamide] | ++ (Compounds with a Cisplatin sensitization value >0.02 μM but <0.2 μM are marked with “++.”)
Nc1nn2cc(Cl)cnc2c1C(=O)Nc1cncc(F)c1N1CCN(C2COC2)CC1 [I-N-117, 2-amino-6-chloro-N-(5-fluoro-4-(4-(oxetan-3-yl)piperazin-1-yl)pyridin-3-yl)pyrazolo[1,5-a]pyrimidine-3-carboxamide] | +++ (Compounds with a Cisplatin sensitization value of <0.02 μM are marked with “+++.”)
Nc1nn2cc(F)cnc2c1C(=O)Nc1cncc(F)c1N1CCNCC1 [I-N-118, 2-amino-6-fluoro-N-(5-fluoro-4-(piperazin-1-yl)pyridin-3-yl)pyrazolo[1,5-a]pyrimidine-3-carboxamide] | +++ (Compounds with a Cisplatin sensitization value of <0.02 μM are marked with “+++.”)
Nc1nn2cc(F)cnc2c1C(=O)Nc1cncc(C2CC2)c1N1CCN([C@@H]2CCOC2)CC1 [I-N-119, (R)-2-amino-N-(5-cyclopropyl-4-(4-(tetrahydrofuran-3-yl)piperazin-1-yl)pyridin-3-yl)-6-fluoropyrazolo[1,5-a]pyrimidine-3-carboxamide] | ++ (Compounds with a Cisplatin sensitization value >0.02 μM but <0.2 μM are marked with “++.”)
Nc1nn2cc(F)cnc2c1C(=O)Nc1cncc(C2CC2)c1N1CCN([C@H]2CCOC2)CC1 [I-N-120, (S)-2-amino-N-(5-cyclopropyl-4-(4-(tetrahydrofuran-3-yl)piperazin-1-yl)pyridin-3-yl)-6-fluoropyrazolo[1,5-a]pyrimidine-3-carboxamide] | +++ (Compounds with a Cisplatin sensitization value of <0.02 μM are marked with “+++.”)
Nc1nn2cc(F)cnc2c1C(=O)Nc1cncc(F)c1N1CCN(C2CCOCC2)CC1 [I-N-121, 2-amino-6-fluoro-N-(5-fluoro-4-(4-(tetrahydro-2H-pyran-4-yl)piperazin-1-yl)pyridin-3-yl)pyrazolo[1,5-a]pyrimidine-3-carboxamide] | +++ (Compounds with a Cisplatin sensitization value of <0.02 μM are marked with “+++.”)
Nc1nn2cc(F)cnc2c1C(=O)Nc1cncc(F)c1N1CCN(C2CCOC2)CC1 (centres unmarked) [I-N-122, 2-amino-6-fluoro-N-(5-fluoro-4-(4-(tetrahydrofuran-3-yl)piperazin-1-yl)pyridin-3-yl)pyrazolo[1,5-a]pyrimidine-3-carboxamide] | ++ (Compounds with a Cisplatin sensitization value >0.02 μM but <0.2 μM are marked with “++.”)
Cc1cncc(NC(=O)c2c(N)nn3cc(F)cnc23)c1N1CCN(C2CCOCC2)CC1 [I-N-123, 2-amino-6-fluoro-N-(5-methyl-4-(4-(tetrahydro-2H-pyran-4-yl)piperazin-1-yl)pyridin-3-yl)pyrazolo[1,5-a]pyrimidine-3-carboxamide] | ++ (Compounds with a Cisplatin sensitization value >0.02 μM but <0.2 μM are marked with “++.”)
Nc1nn2cc(F)cnc2c1C(=O)Nc1cncc(Cl)c1N1CCN(C2CCOC2)CC1 (centres unmarked) [I-N-124, 2-amino-N-(5-chloro-4-(4-(tetrahydrofuran-3-yl)piperazin-1-yl)pyridin-3-yl)-6-fluoropyrazolo[1,5-a]pyrimidine-3-carboxamide] | +++ (Compounds with a Cisplatin sensitization value of <0.02 μM are marked with “+++.”)
